# Measured values published in PMC6134108, “Nystatin-like Pseudonocardia polyene B1, a novel disaccharide-containing antifungal heptaene antibiotic” (Scientific Reports, 2018).
# Like-named read-outs stand apart in the source and are kept apart here.
# How the values were obtained:
# [1] = test system: C. albicans SC5314; experiment: MIC assay (CLSI M27-A3 microbroth); type: cell-based; details: Candida albicans, SC5314, read-out: Antifungal activity (MIC)
# Description: (§1) For the minimum inhibitory concentration (MIC) assay, strains for testing were grown on YPD agar for 24 hours, and subcultured to YPD broth medium. Whole strains were incubated for 18 hours at 35 °C by shaking incubator. Grown organisms were diluted with fresh RPMI 1640 medium to appropriate concentration, 5 × 10^4 CFU/ml. Cultures were inoculated to 96-well plates containing antifungal medium. All compounds were dissolved using Dimethyl Sulfoxide (DMSO) and diluted broth media. Fungal diluted solution and antifungal medium were mixed at 1:1 ratio so total 200 ul mixed medium was made. Whole experiment plates were incubated for 24 hours at 37 °C. […] The MICs were calculated in duplicate using the Clinical and Laboratory Standards Institute M27-A3 microbroth methodology. Hemolysis experiments and the 3-(4,5-dimethylthiazol-2-yl)-5-(3-carboxymethoxyphenyl)-2-(4-sulfophenyl)-2H-tetrazolium (MTS) cell proliferation colorimetric assay were performed following known procedures[12],[27],[29].
# [2] = test system: C. albicans SL28; experiment: MIC assay (CLSI M27-A3 microbroth); type: cell-based; details: Candida albicans, SL28, read-out: Antifungal activity (MIC)
# Description: as §1
# [3] = test system: C. albicans SL38; experiment: MIC assay (CLSI M27-A3 microbroth); type: cell-based; details: Candida albicans, SL38, read-out: Antifungal activity (MIC)
# Description: as §1
# [4] = test system: Candida albicans KCTC7965; experiment: MIC assay (CLSI M27-A3 microbroth); type: cell-based; details: Candida albicans, KCTC7965, read-out: Antifungal activity (MIC)
# Description: as §1
# [5] = test system: Cryptococcus humicola ATCC9949; experiment: MIC assay (CLSI M27-A3 microbroth); type: cell-based; details: Vanrija humicola, ATCC9949, read-out: Antifungal activity (MIC)
# Description: as §1
# [6] = test system: Saccharomyces cerevisiae ATCC9035; experiment: MIC assay (CLSI M27-A3 microbroth); type: cell-based; details: Saccharomyces cerevisiae, ATCC9035, read-out: Antifungal activity (MIC)
# Description: as §1
# [7] = test system: horse blood cells; type: cell-based; details: 90% hemolysis against horse blood cells; ± percentage standard deviation
# Description: as §1
# [8] = in vivo; details: mouse, 0.5 mg/kg
# Description: Supplement 41598_2018_31801_MOESM1_ESM.docx, table 4: Table S4.
# [9] = Single intravenous dose acute toxicity; type: in vivo, mice; details: ICR, mouse, in vivo, single intravenous administration
# Description: (§2) All in vivo mouse toxicity studies were conducted according to Testing Guidelines for Safety Evaluation of Drugs[32] and the Organisation for Economic Co-operation and Development (OECD) Guideline[33]. Male and female ICR mice were used 7 weeks old for the toxicity test. […] The single doses were 1, 2.5, and 5 mg per kg body weight.
# [10] = test system: ICR mice; experiment: Single intravenous dose acute toxicity; type: in vivo
# Description: as §2
# [11] = 7-day repeated intravenous dose toxicity; type: in vivo, mice; details: both sexes, ICR, mouse, in vivo; mice, 7-day repeated intravenous doses; read-out: MTD, maximal tolerated dose
# Description: (§3) All in vivo mouse toxicity studies were conducted according to Testing Guidelines for Safety Evaluation of Drugs[32] and the Organisation for Economic Co-operation and Development (OECD) Guideline[33]. Male and female ICR mice were used 7 weeks old for the toxicity test. […]
# [12] = test system: ICR mice; experiment: 7-day repeated intravenous dose toxicity; type: in vivo; details: repeated iv 1.5mg/kg
# Description: as §3
# [13] = test system: ergosterol-containing membranes; experiment: Preliminary SPR experiments; type: binding; details: ergosterol- vs cholesterol-containing liposomes, unpublished data
# [14] = rats, oral administration
# [15] = in vivo; details: male, SD, rat, plasma, iv, 1 mg/kg
smiles,measurement,setting,value
"CC(=O)NC1C(OC2C(C)OC(OC3C=CC=CC=CC=CC=CC=CC=CC(C)C(O)C(C)C(C)OC(=O)CC(O)CC(O)CC(O)CCC(O)C(O)CC4(O)CC(O)C(C(=O)O)C(C3)O4)C(O)C2N)OC(CO)C(O)C1O (stereo not shown) [NPP B1, Nystatin-like Pseudonocardia polyene B1]",MIC,[1],4 µg/mL
same,MIC,[2],4 µg/mL
same,MIC,[3],2 µg/mL
same,MIC,[4],2 µg/mL
same,MIC,[5],1 µg/mL
same,MIC,[6],2 µg/mL
same,"Hemolytic activity (MHC, minimum hemolytic concentration)",[7],13.60 ± 0.19 µg/mL
same,AUC(0-inf),[8]; read-out: AUC0-inf,15100 ng·h/mL
same,AUC(0-t),[8]; read-out: AUC0-t,5890 ng·h/mL
same,clearance,[8]; read-out: CL (converted),0.5 mL/min/kg
same,MRT inf,[8]; read-out: MRTinf,17 h
same,Vd,[8]; read-out: Vss,0.6 L/kg
same,half-life,[8]; read-out: t1/2 (converted),12.3 h
same,LD50 at 7 days,"[9]; female mice, read-out: median lethal dose (LD50)",2.95 mg/kg
same,LD50 at 7 days,"[9]; male mice, read-out: median lethal dose (LD50)",2.95 mg/kg
same,LD50 at 7 days,"[9]; both sexes, mice, read-out: LD50, median lethal dose (dose causing 50% mortality)",2.95 mg/kg
same,Deaths on day after start of treatment,"[10]; female, single iv 1mg/kg, day 0",0
same,Deaths on day after start of treatment,"[10]; female, single iv 1mg/kg, day 1",0
same,Deaths on day after start of treatment,"[10]; female, single iv 1mg/kg, day 2",0
same,Deaths on day after start of treatment,"[10]; female, single iv 1mg/kg, day 3",0
same,Deaths on day after start of treatment,"[10]; female, single iv 1mg/kg, day 4",0
same,Deaths on day after start of treatment,"[10]; female, single iv 1mg/kg, day 5",0
same,Deaths on day after start of treatment,"[10]; female, single iv 1mg/kg, day 6",0
same,Deaths on day after start of treatment,"[10]; female, single iv 1mg/kg, day 7",0
same,Deaths on day after start of treatment,"[10]; female, single iv 2.5mg/kg, day 0",1
same,Deaths on day after start of treatment,"[10]; female, single iv 2.5mg/kg, day 1",0
same,Deaths on day after start of treatment,"[10]; female, single iv 2.5mg/kg, day 2",1
same,Deaths on day after start of treatment,"[10]; female, single iv 2.5mg/kg, day 3",0
same,Deaths on day after start of treatment,"[10]; female, single iv 2.5mg/kg, day 4",0
same,Deaths on day after start of treatment,"[10]; female, single iv 2.5mg/kg, day 5",0
same,Deaths on day after start of treatment,"[10]; female, single iv 2.5mg/kg, day 6",0
same,Deaths on day after start of treatment,"[10]; female, single iv 2.5mg/kg, day 7",0
same,Deaths on day after start of treatment,"[10]; female, single iv 5mg/kg, day 0",3
same,Deaths on day after start of treatment,"[10]; female, single iv 5mg/kg, day 1",2
same,Deaths on day after start of treatment,"[10]; female, single iv 5mg/kg, day 2",0
same,Deaths on day after start of treatment,"[10]; female, single iv 5mg/kg, day 3",0
same,Deaths on day after start of treatment,"[10]; female, single iv 5mg/kg, day 4",0
same,Deaths on day after start of treatment,"[10]; female, single iv 5mg/kg, day 5",0
same,Deaths on day after start of treatment,"[10]; female, single iv 5mg/kg, day 6",0
same,Deaths on day after start of treatment,"[10]; female, single iv 5mg/kg, day 7",0
same,Deaths on day after start of treatment,"[10]; male, single iv 1mg/kg, day 0",0
same,Deaths on day after start of treatment,"[10]; male, single iv 1mg/kg, day 1",0
same,Deaths on day after start of treatment,"[10]; male, single iv 1mg/kg, day 2",0
same,Deaths on day after start of treatment,"[10]; male, single iv 1mg/kg, day 3",0
same,Deaths on day after start of treatment,"[10]; male, single iv 1mg/kg, day 4",0
same,Deaths on day after start of treatment,"[10]; male, single iv 1mg/kg, day 5",0
same,Deaths on day after start of treatment,"[10]; male, single iv 1mg/kg, day 6",0
same,Deaths on day after start of treatment,"[10]; male, single iv 1mg/kg, day 7",0
same,Deaths on day after start of treatment,"[10]; male, single iv 2.5mg/kg, day 0",1
same,Deaths on day after start of treatment,"[10]; male, single iv 2.5mg/kg, day 1",0
same,Deaths on day after start of treatment,"[10]; male, single iv 2.5mg/kg, day 2",1
same,Deaths on day after start of treatment,"[10]; male, single iv 2.5mg/kg, day 3",0
same,Deaths on day after start of treatment,"[10]; male, single iv 2.5mg/kg, day 4",0
same,Deaths on day after start of treatment,"[10]; male, single iv 2.5mg/kg, day 5",0
same,Deaths on day after start of treatment,"[10]; male, single iv 2.5mg/kg, day 6",0
same,Deaths on day after start of treatment,"[10]; male, single iv 2.5mg/kg, day 7",0
same,Deaths on day after start of treatment,"[10]; male, single iv 5mg/kg, day 0",4
same,Deaths on day after start of treatment,"[10]; male, single iv 5mg/kg, day 1",0
same,Deaths on day after start of treatment,"[10]; male, single iv 5mg/kg, day 2",1
same,Deaths on day after start of treatment,"[10]; male, single iv 5mg/kg, day 3",0
same,Deaths on day after start of treatment,"[10]; male, single iv 5mg/kg, day 4",0
same,Deaths on day after start of treatment,"[10]; male, single iv 5mg/kg, day 5",0
same,Deaths on day after start of treatment,"[10]; male, single iv 5mg/kg, day 6",0
same,Deaths on day after start of treatment,"[10]; male, single iv 5mg/kg, day 7",0
same,MTD at 7 days,[11],> 1.5 mg/kg
same,Deaths on day after start of treatment,"[12]; female, day 0",0
same,Deaths on day after start of treatment,"[12]; female, day 1",0
same,Deaths on day after start of treatment,"[12]; female, day 2",0
same,Deaths on day after start of treatment,"[12]; female, day 3",0
same,Deaths on day after start of treatment,"[12]; female, day 4",0
same,Deaths on day after start of treatment,"[12]; female, day 5",0
same,Deaths on day after start of treatment,"[12]; female, day 6",0
same,Deaths on day after start of treatment,"[12]; female, day 7",0
same,Deaths on day after start of treatment,"[12]; male, day 0",0
same,Deaths on day after start of treatment,"[12]; male, day 1",0
same,Deaths on day after start of treatment,"[12]; male, day 2",0
same,Deaths on day after start of treatment,"[12]; male, day 3",0
same,Deaths on day after start of treatment,"[12]; male, day 4",0
same,Deaths on day after start of treatment,"[12]; male, day 5",0
same,Deaths on day after start of treatment,"[12]; male, day 6",0
same,binding preference,[13],binds preferentially to ergosterol-containing liposomes
same,detection in the plasma following oral administration,[14],not detected
same,AUC(0-inf),[15],13600 ng·h/mL
same,AUC(0-t),[15],10300 ng·h/mL
same,MRT inf,[15],15.6 h
same,Vd,[15],1.1 L/kg
same,clearance,[15],1.67 mL/min/kg
same,half-life,[15],14.5 h
